Holding throughout (experiment): relative viability (nuclei count vs DMSO), 5 days (fraction); higher = more cells survive
Compound in assay [1]: CC(C)C[C@H](NC(=O)[C@H](Cc1ccccc1)NC(=O)c1cnccn1)B(O)O [Bortezomib] + O=C(c1cc(Cc2n[nH]c(=O)c3ccccc23)ccc1F)N1CCN(C(=O)C2CC2)CC1 [Olaparib] (partner 8 µM)
In short, it runs like this:
(§1)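 Lung cancer cell lines were pin-tool dosed in 1536-well plates on the day after seeding, with either a lone drug or a fixed anchor-drug dose plus five library-drug doses (not always all listed) in √10 steps. Nuclei were counted on 4× images after 5 days. Relative viability is the ratio of treated-well to vehicle-well nuclei counts, with each value a median of duplicate plates.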

Compound in assay [2]: COC1=CC(c2cc3ccccc3[nH]2)=N/C1=C\c1[nH]c(C)cc1C [Obatoclax] + Cc1nc(NC(=O)N2CCC[C@H]2C(N)=O)sc1-c1ccnc(C(C)(C)C(F)(F)F)c1 [Alpelisib] (partner 2 µM)
In short, it runs like this:
as §1

Compound in assay [3]: COC1=CC(c2cc3ccccc3[nH]2)=N/C1=C\c1[nH]c(C)cc1C [Obatoclax] + Cc1cc(Nc2cc(N3CCN(C)CC3)nc(Sc3ccc(NC(=O)C4CC4)cc3)n2)n[nH]1 [Tozasertib] (partner 0.1 µM)
In short, it runs like this: as §1

Compound in assay [4]: COC1=CC(c2cc3ccccc3[nH]2)=N/C1=C\c1[nH]c(C)cc1C [Obatoclax] + CC(=O)c1c(C)c2cnc(Nc3ccc(N4CCNCC4)cn3)nc2n(C2CCCC2)c1=O [Palbociclib] (partner 0.5 µM)
In short, it runs like this:
as §1

For the cell line PC-3 [JPC-3], the relative viability in assay [1] (first compound 0.0002 µM) was 1.08; in assay [1] (first compound 0.000632 µM), 1.14; in assay [1] (first compound 0.002 µM), 0.451; in assay [1] (first compound 0.006325 µM) it was 0.236; in assay [1] (first compound 0.02 µM), 0.216; in assay [2] (first compound 0.01 µM), 0.968. Also, the relative viability was found to be 1.01 in assay [2] (first compound 0.03162 µM); 0.999 in assay [2] (first compound 0.1 µM); 0.975 in assay [2] (first compound 0.3162 µM); 1.1 in assay [2] (first compound 1 µM); 0.913 in assay [3] (first compound 0.01 µM); 0.85 in assay [3] (first compound 0.03162 µM). Besides, the relative viability in assay [3] (first compound 0.1 µM) came out at 0.87; in assay [3] (first compound 0.3162 µM) it was 0.81; in assay [3] (first compound 1 µM), 0.859; in assay [4] (first compound 0.01 µM) it was 0.497; in assay [4] (first compound 0.03162 µM), 0.515; in assay [4] (first compound 0.1 µM) it was 0.503. The relative viability in assay [4] (first compound 0.3162 µM) is 0.406; in assay [4] (first compound 1 µM), 0.33.

Take PC-14: the relative viability came out at 0.239 in assay [1] (first compound 0.0002 µM); 0.282 in assay [1] (first compound 0.000632 µM); 0.323 in assay [1] (first compound 0.002 µM); 0.0333 in assay [1] (first compound 0.006325 µM); 0.0494 in assay [1] (first compound 0.02 µM); 0.875 in assay [2] (first compound 0.01 µM). For the same cell line, the relative viability in assay [2] (first compound 0.03162 µM) stood at 0.92; in assay [2] (first compound 0.1 µM), 0.892; in assay [2] (first compound 0.3162 µM), 0.775; in assay [2] (first compound 1 µM), 0.632; in assay [3] (first compound 0.01 µM), 0.553; in assay [3] (first compound 0.03162 µM), 0.562. Also, the relative viability in assay [3] (first compound 0.1 µM) is 0.473; in assay [3] (first compound 0.3162 µM) it was 0.535; in assay [3] (first compound 1 µM), 0.348; in assay [4] (first compound 0.01 µM), 0.453; in assay [4] (first compound 0.03162 µM) it was 0.489; in assay [4] (first compound 0.1 µM), 0.411. Also, the relative viability in assay [4] (first compound 0.3162 µM) was 0.0534; in assay [4] (first compound 1 µM), 0.055.

Take RERF-LC-KJ: the relative viability came out at 0.803 in assay [1] (first compound 0.0002 µM); 1.02 in assay [1] (first compound 0.000632 µM); 0.728 in assay [1] (first compound 0.002 µM); 0.286 in assay [1] (first compound 0.006325 µM); 0.199 in assay [1] (first compound 0.02 µM); 0.754 in assay [2] (first compound 0.01 µM). In addition, the relative viability stood at 0.811 in assay [2] (first compound 0.03162 µM); 0.805 in assay [2] (first compound 0.1 µM); 0.803 in assay [2] (first compound 0.3162 µM); 0.775 in assay [2] (first compound 1 µM); 0.444 in assay [3] (first compound 0.01 µM); 0.536 in assay [3] (first compound 0.03162 µM). Further, the relative viability in assay [3] (first compound 0.1 µM) came to 0.487; in assay [3] (first compound 0.3162 µM) it was 0.493; in assay [3] (first compound 1 µM), 0.281; in assay [4] (first compound 0.01 µM), 0.909; in assay [4] (first compound 0.03162 µM), 1.06; in assay [4] (first compound 0.1 µM) it was 1.09. Further, the results for the relative viability in assay [4] (first compound 0.3162 µM) and in assay [4] (first compound 1 µM) were 0.957 and 0.892, respectively.

With SK-LU-1, the relative viability turned out to be 0.477 in assay [1] (first compound 0.0002 µM); 0.442 in assay [1] (first compound 0.000632 µM); 0.462 in assay [1] (first compound 0.002 µM); 0.198 in assay [1] (first compound 0.006325 µM); 0.149 in assay [1] (first compound 0.02 µM); 0.825 in assay [2] (first compound 0.01 µM). In addition, the relative viability stood at 0.984 in assay [2] (first compound 0.03162 µM); 0.779 in assay [2] (first compound 0.1 µM); 0.355 in assay [2] (first compound 0.3162 µM); 0.29 in assay [2] (first compound 1 µM); 0.346 in assay [3] (first compound 0.01 µM); 0.354 in assay [3] (first compound 0.03162 µM). Further, the relative viability in assay [3] (first compound 0.1 µM) stood at 0.342; in assay [3] (first compound 0.3162 µM) it was 0.184; in assay [3] (first compound 1 µM) it was 0.154; in assay [4] (first compound 0.01 µM), 0.367; in assay [4] (first compound 0.03162 µM) it was 0.419; in assay [4] (first compound 0.1 µM), 0.352. Besides, the values for the relative viability in assay [4] (first compound 0.3162 µM) and in assay [4] (first compound 1 µM) were 0.326 and 0.317, respectively.

Consider SK-MES-1, for which the relative viability stood at 0.649 in assay [1] (first compound 0.0002 µM); 0.839 in assay [1] (first compound 0.000632 µM); 0.521 in assay [1] (first compound 0.002 µM); 0.171 in assay [1] (first compound 0.006325 µM); 0.159 in assay [1] (first compound 0.02 µM); 0.828 in assay [2] (first compound 0.01 µM). The relative viability in assay [2] (first compound 0.03162 µM) worked out at 0.785; in assay [2] (first compound 0.1 µM), 1.01; in assay [2] (first compound 0.3162 µM), 0.824; in assay [2] (first compound 1 µM) it was 0.645; in assay [3] (first compound 0.01 µM), 0.859; in assay [3] (first compound 0.03162 µM) it was 0.999. The relative viability was determined as 0.787 in assay [3] (first compound 0.1 µM); 0.344 in assay [3] (first compound 0.3162 µM); 0.285 in assay [3] (first compound 1 µM); 0.295 in assay [4] (first compound 0.01 µM); 0.329 in assay [4] (first compound 0.03162 µM); 0.247 in assay [4] (first compound 0.1 µM). Besides, the relative viability came out at 0.181 in assay [4] (first compound 0.3162 µM) and 0.203 in assay [4] (first compound 1 µM).

For SW 1573, the relative viability in assay [1] (first compound 0.0002 µM) was determined as 0.421; in assay [1] (first compound 0.000632 µM), 0.408; in assay [1] (first compound 0.002 µM), 0.319; in assay [1] (first compound 0.006325 µM), 0.0537; in assay [1] (first compound 0.02 µM) it was 0.0441; in assay [2] (first compound 0.01 µM), 0.789. The relative viability turned out to be 0.701 in assay [2] (first compound 0.03162 µM); 0.946 in assay [2] (first compound 0.1 µM); 0.672 in assay [2] (first compound 0.3162 µM); 0.556 in assay [2] (first compound 1 µM); 0.222 in assay [3] (first compound 0.01 µM); 0.208 in assay [3] (first compound 0.03162 µM). Moreover, the relative viability in assay [3] (first compound 0.1 µM) is 0.145; in assay [3] (first compound 0.3162 µM), 0.143; in assay [3] (first compound 1 µM), 0.129; in assay [4] (first compound 0.01 µM) it was 0.379; in assay [4] (first compound 0.03162 µM), 0.35; in assay [4] (first compound 0.1 µM) it was 0.298. Also, the relative viability stood at 0.118 in assay [4] (first compound 0.3162 µM) and 0.133 in assay [4] (first compound 1 µM).

In the case of UMC-11, the relative viability in assay [1] (first compound 0.0002 µM) came to 0.441; in assay [1] (first compound 0.000632 µM), 0.398; in assay [1] (first compound 0.002 µM), 0.348; in assay [1] (first compound 0.006325 µM), 0.189; in assay [1] (first compound 0.02 µM), 0.133; in assay [2] (first compound 0.01 µM) it was 0.954. The relative viability in assay [2] (first compound 0.03162 µM) is 0.892; in assay [2] (first compound 0.1 µM) it was 1.03; in assay [2] (first compound 0.3162 µM), 0.584; in assay [2] (first compound 1 µM), 0.442; in assay [3] (first compound 0.01 µM) it was 0.202; in assay [3] (first compound 0.03162 µM) it was 0.197. Further, the relative viability worked out at 0.234 in assay [3] (first compound 0.1 µM); 0.249 in assay [3] (first compound 0.3162 µM); 0.22 in assay [3] (first compound 1 µM); 0.373 in assay [4] (first compound 0.01 µM); 0.346 in assay [4] (first compound 0.03162 µM); 0.33 in assay [4] (first compound 0.1 µM). In addition, the relative viability in assay [4] (first compound 0.3162 µM) turned out to be 0.322; in assay [4] (first compound 1 µM), 0.373.

The values are drawn from the supplement of paper PMC10307832.
